Assays:
[1] = 101 kPa, Liquid; for mass density: Vibrating tube method
[2] = xn = mol fraction of the nth substance listed; details: 101 kPa, Liquid; for mass density: Vibrating tube method

CCCCCl [1-chlorobutane]
[1]
Details | kinematic viscosity [m2/s] | mass density [kg/m3]
298.15 K | 4.78e-07 | 880.69
313.15 K | 4.21e-07 | 863.82

CC(C)(C)Cl [2-chloro-2-methylpropane]
[1]
Details | kinematic viscosity [m2/s] | mass density [kg/m3]
298.15 K | 5.68e-07 | 836.45
313.15 K | 4.77e-07 | 818.31

CCC(C)Cl (stereo not drawn) [2-chlorobutane]
[1]
Details | kinematic viscosity [m2/s] | mass density [kg/m3]
298.15 K | 4.54e-07 | 867.37
313.15 K | 3.96e-07 | 850.13

CCCCCl [1-chlorobutane] + C1CCOCC1
[2]
Details | kinematic viscosity [m2/s] | mass density [kg/m3]
298.15 K, x2 = 0 | 4.78e-07 | 880.69
298.15 K, x2 = 0.0243 | 4.84e-07 | –
298.15 K, x2 = 0.0521 | – | 880.67
298.15 K, x2 = 0.1006 | – | 880.66
298.15 K, x2 = 0.1039 | 5.02e-07 | –
298.15 K, x2 = 0.1949 | – | 880.62
298.15 K, x2 = 0.2058 | 5.29e-07 | –
298.15 K, x2 = 0.2549 | – | 880.59
298.15 K, x2 = 0.307 | 5.59e-07 | –
298.15 K, x2 = 0.3774 | – | 880.48
298.15 K, x2 = 0.3984 | 5.89e-07 | –
298.15 K, x2 = 0.5035 | – | 880.26
298.15 K, x2 = 0.5077 | 6.3e-07 | –
298.15 K, x2 = 0.5948 | – | 880.06
298.15 K, x2 = 0.6038 | 6.69e-07 | –
298.15 K, x2 = 0.661 | – | 879.87
298.15 K, x2 = 0.7064 | 7.18e-07 | –
298.15 K, x2 = 0.7893 | – | 879.49
298.15 K, x2 = 0.7994 | 7.68e-07 | –
298.15 K, x2 = 0.9058 | 8.37e-07 | –
298.15 K, x2 = 0.9203 | – | 879.07
298.15 K, x2 = 0.9498 | 8.7e-07 | –
298.15 K, x2 = 0.9666 | – | 878.91
313.15 K, x2 = 0 | 4.21e-07 | 863.82
313.15 K, x2 = 0.0243 | 4.28e-07 | –
313.15 K, x2 = 0.0348 | – | 863.98
313.15 K, x2 = 0.0899 | – | 864.19
313.15 K, x2 = 0.1039 | 4.42e-07 | –
313.15 K, x2 = 0.1717 | – | 864.39
313.15 K, x2 = 0.2058 | 4.63e-07 | –
313.15 K, x2 = 0.2933 | – | 864.54
313.15 K, x2 = 0.307 | 4.86e-07 | –
313.15 K, x2 = 0.3984 | 5.09e-07 | –
313.15 K, x2 = 0.413 | – | 864.6
313.15 K, x2 = 0.4926 | – | 864.61
313.15 K, x2 = 0.5077 | 5.4e-07 | –
313.15 K, x2 = 0.6026 | – | 864.59
313.15 K, x2 = 0.6038 | 5.72e-07 | –
313.15 K, x2 = 0.7064 | 6.1e-07 | –
313.15 K, x2 = 0.7085 | – | 864.52
313.15 K, x2 = 0.7994 | 6.49e-07 | –
313.15 K, x2 = 0.8006 | – | 864.45
313.15 K, x2 = 0.899 | – | 864.22
313.15 K, x2 = 0.9058 | 7.01e-07 | –
313.15 K, x2 = 0.9498 | 7.25e-07 | –
313.15 K, x2 = 0.9724 | – | 863.88

CCC(C)Cl (stereo not drawn) [2-chlorobutane] + C1CCOCC1
[2]
Details | kinematic viscosity, 298.15 K [m2/s] | kinematic viscosity, 313.15 K [m2/s] | mass density, 298.15 K [kg/m3] | mass density, 313.15 K [kg/m3]
x2 = 0 | 4.54e-07 | 3.96e-07 | 867.37 | 850.13
x2 = 0.0525 | – | – | 868.05 | –
x2 = 0.0605 | 4.66e-07 | 4.09e-07 | – | 851.11
x2 = 0.1035 | – | – | 869.06 | –
x2 = 0.1166 | 4.8e-07 | 4.22e-07 | – | 852.02
x2 = 0.1947 | – | – | 870.26 | –
x2 = 0.2131 | 5.08e-07 | 4.45e-07 | – | 853.59
x2 = 0.3042 | – | – | 871.8 | –
x2 = 0.3174 | 5.42e-07 | 4.72e-07 | – | 855.4
x2 = 0.4088 | 5.75e-07 | 4.97e-07 | – | 857
x2 = 0.4091 | – | – | 872.95 | –
x2 = 0.4994 | 6.11e-07 | 5.25e-07 | – | 858.35
x2 = 0.5025 | – | – | 874.28 | –
x2 = 0.5947 | – | – | 875.42 | –
x2 = 0.6122 | 6.62e-07 | 5.66e-07 | – | 859.58
x2 = 0.7108 | 7.14e-07 | 6.06e-07 | – | 861.03
x2 = 0.7116 | – | – | 876.72 | –
x2 = 0.8059 | 7.69e-07 | 6.49e-07 | – | 862.1
x2 = 0.809 | – | – | 877.46 | –
x2 = 0.8917 | – | – | 878.36 | –
x2 = 0.9023 | 8.34e-07 | 6.97e-07 | – | 862.9
x2 = 0.9549 | 8.73e-07 | 7.28e-07 | – | 863.45
x2 = 0.9599 | – | – | 878.55 | –
